{
  "source": "paper PMC7125537",
  "about": "(Bioorganic & Medicinal Chemistry Letters, 2010)",
  "test_system": "DU-145 cells",
  "test": "Migration assay",
  "format": "cell-based, human",
  "data": [
    {"molecule": "NC(=S)N/N=C(/c1cccc(Br)c1)c1ccccc1F", "note": "[analog 1, 3-bromophenyl-2′-fluorophenyl thiosemicarbazone]", "values": [
      {"measurement": "inhibition of DU-145 cell migration (in words)", "value": "effective inhibitor of DU-145 cell invasion and migration"}
    ]}
  ]
}
